Results as given in PMC11452689 (Communications Biology, 2024).

Assay: LUV membrane polarisation, oxonol VI, Na+/K+ gradient
Format: biochemical
Details: 100 mM NaCl inside, 100 mM KCl outside, pH 7.2, 0.5 MIC

## valinomycin
  diffusion potential in the cation gradient LUV model, in words: inside positive polarisation
